According to US12076307B2, “Compositions for prevention or treatment of acute radiation syndrome and other radiation exposure” (priority 2017, dated 2024):

Columns and labels:
[1] = In vitro metabolic stability / metabolite screening, statements over all species; format: in vitro ADME, rat, dog, monkey, human; settings: 100 μM
Procedure: [^14C]EC-18 or the positive control (7-ethoxycoumarin; 7-EC) reacted with microsomes prepared from hepatocytes of rats, dogs, monkeys, and humans, with or without cofactors, for 60 and 120 min. Then, the residual EC-18 concentration over time was measured by LC-RID ([^14C]EC-18) or LC-MS/MS (7-EC) (FIG. 63 and FIG. 64).
The LC-RID chromatographic profiles of radioactive metabolites produced in the 2-hr incubation reaction mixtures of the same test systems A, B, and C used to assess the metabolic and non-metabolic elimination rates of EC-18 were compared to the LC-UV chromatographic profiles of the synthetic reference material. […] The relative radioactivity of EC-18 accounted for 42-67% of total radioactivity. The peaks designated as M2, M3, and M5 were also determined in all species, and their relative radioactivity accounted for 12-34% of total radioactivity. The peaks of M4 and M6 were determined in monkeys and humans. M1 was abundantly detected in all species, but it was assumed to be a peak of early elution. The LC-UV chromatograms of reaction mixtures in each test system (FIGS. 65A-65C) and the relative radioactivity of the screened metabolites are shown in Table 25.

CYP1A2 [2] = target: T1, CYP1A2 (Homo sapiens, UniProt P05177); test: biochemical; format: in vitro ADME
T1 construct: incubated with human liver microsomes; from tissue; host or cells: human liver microsomes
T1 sequence (P05177 whole entry): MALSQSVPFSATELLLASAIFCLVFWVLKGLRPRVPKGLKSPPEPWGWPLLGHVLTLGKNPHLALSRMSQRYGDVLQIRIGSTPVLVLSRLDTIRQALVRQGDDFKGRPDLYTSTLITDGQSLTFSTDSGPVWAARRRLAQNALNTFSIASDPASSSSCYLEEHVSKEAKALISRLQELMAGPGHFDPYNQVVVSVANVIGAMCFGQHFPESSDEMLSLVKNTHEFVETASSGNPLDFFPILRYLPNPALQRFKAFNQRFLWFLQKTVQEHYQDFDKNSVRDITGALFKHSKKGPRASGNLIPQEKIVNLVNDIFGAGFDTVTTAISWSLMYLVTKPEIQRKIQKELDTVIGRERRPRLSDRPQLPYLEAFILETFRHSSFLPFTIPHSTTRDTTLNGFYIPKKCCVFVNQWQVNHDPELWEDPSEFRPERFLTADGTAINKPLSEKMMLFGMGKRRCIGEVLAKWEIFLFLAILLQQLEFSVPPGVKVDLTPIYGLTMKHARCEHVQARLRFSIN

[3] = In vitro plasma stability, human plasma; format: in vitro ADME; settings: Humans; 1 μM; 37° C.; n=3
Procedure: (§1) To assess the stability of EC-18 in plasma, the test material, or the standard reference material (test concentration 1 μM) was mixed with rat and human plasma and allowed to react for 1 hr at 37° C. Then, the residual EC-18 concentration was measured by LC-MS/MS. As standard reference materials, albendazole (a drug with high plasma stability) and vinpocetine (a drug with low plasma stability) were tested in parallel. When allowed to react with rat and human plasma for 1 hr, the residual EC-18 concentration in both rat and human plasma was >99% of the initial dose.

[4] = In vitro plasma stability, rat plasma; format: in vitro ADME; settings: Rats; 1 μM; 37° C.; n=3
Procedure: as §1

CYP1A2 [5] = format: in vitro ADME, human; settings: Positive Control, 50 μM; n=3
CYP2C19 = CYP2C19 (Homo sapiens, UniProt P33261); test: CYP enzyme inhibition in human liver microsomes, CYP2C19
Chain of CYP2C19 (P33261 whole entry): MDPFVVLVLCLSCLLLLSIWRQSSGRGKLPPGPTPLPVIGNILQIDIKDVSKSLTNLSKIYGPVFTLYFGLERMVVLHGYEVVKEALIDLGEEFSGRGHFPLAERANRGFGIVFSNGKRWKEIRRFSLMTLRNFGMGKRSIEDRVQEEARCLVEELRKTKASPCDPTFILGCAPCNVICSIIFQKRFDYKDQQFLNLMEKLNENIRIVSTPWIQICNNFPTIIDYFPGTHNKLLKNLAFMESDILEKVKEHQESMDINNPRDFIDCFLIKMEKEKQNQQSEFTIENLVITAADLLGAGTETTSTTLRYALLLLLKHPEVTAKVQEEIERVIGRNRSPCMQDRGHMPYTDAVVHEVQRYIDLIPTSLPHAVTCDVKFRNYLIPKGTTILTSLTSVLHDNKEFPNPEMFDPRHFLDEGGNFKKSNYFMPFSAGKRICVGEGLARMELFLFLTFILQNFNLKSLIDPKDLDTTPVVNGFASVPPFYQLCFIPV
Excerpt: (§2) CYP1A2, CYP2C9, CYP2C19, CYP2D6, and CYP3A4 are the CYP subfamily, which plays a critical role in the metabolism of most drugs.

CYP2D6 = CYP2D6 (Homo sapiens, UniProt P10635); test: CYP enzyme inhibition in human liver microsomes, CYP2D6
Chain of CYP2D6 (P10635 whole entry): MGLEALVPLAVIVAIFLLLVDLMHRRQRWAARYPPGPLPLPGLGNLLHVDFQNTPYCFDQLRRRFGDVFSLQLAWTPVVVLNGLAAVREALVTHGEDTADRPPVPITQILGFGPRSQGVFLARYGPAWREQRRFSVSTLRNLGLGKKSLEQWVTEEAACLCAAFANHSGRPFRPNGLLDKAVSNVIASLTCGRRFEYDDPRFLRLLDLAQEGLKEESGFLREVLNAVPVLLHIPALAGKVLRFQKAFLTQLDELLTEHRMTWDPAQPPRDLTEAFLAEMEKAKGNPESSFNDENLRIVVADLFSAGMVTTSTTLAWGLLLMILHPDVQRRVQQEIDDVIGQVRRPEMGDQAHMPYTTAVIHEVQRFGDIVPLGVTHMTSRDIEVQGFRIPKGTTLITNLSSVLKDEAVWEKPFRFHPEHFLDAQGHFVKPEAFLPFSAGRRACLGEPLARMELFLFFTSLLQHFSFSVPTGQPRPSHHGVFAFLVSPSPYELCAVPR
Excerpt: as §2

With `CCOc1ccc2ccc(=O)oc2c1` [7-EC, 7-ethoxycoumarin, reference compound] as the compound, how does the “share of initial concentration eliminated” value ([1]; 1 hr, test systems A and B, rats, dogs, monkeys, humans) read?
The value was ≥ 99%.

And the “share of initial concentration retained” value ([1]; 2 hrs, test system C)?
Its value is ≥ 92%.

And the IC50 (CYP1A2 [2])?
The IC50 was 1.7 µM.

For `CCCSc1ccc2nc(NC(=O)OC)[nH]c2c1` [Albendazol, albendazole, reference compound], which “Residual Concentration Relative to the Initial Dose After Reaction for 1 hr in Plasma” value [3] is on record?
The value was >99%.

And the “Residual Concentration Relative to the Initial Dose After Reaction for 1 hr in Plasma” value [4]?
Its value is >99%.

For `CCOC(=O)C1=C[C@]2(CC)CCCN3CCc4c(n1c1ccccc41)[C@@H]32` [Vinpocetin, vinpocetine, reference compound], which “Residual Concentration Relative to the Initial Dose After Reaction for 1 hr in Plasma” value [3] is on record?
The value was 85.3 ± 3.8%.

What about the “Residual Concentration Relative to the Initial Dose After Reaction for 1 hr in Plasma” value [4] of the same compound?
Its value is 52.4 ± 7.2%.

Which results are given for `COc1ccc2[nH]c([S+]([O-])Cc3ncc(C)c(OC)c3C)nc2c1` (stereo not shown) [omeprazole, reference compound]?
Enzyme Activity CYP1A2 (CYP1A2 [5]): 6.56 ± 2.86 pmol/106 Cells/Min; IC50 (CYP2C19): 6 µM

For `CC(CN1c2ccccc2Sc2ccccc21)N(C)C` (stereo not shown) [promethazine, reference compound], which IC50 (CYP2D6) is on record?
The IC50 was 67.9 µM.
